Source: US8178558B2, “Substituted pyridylmethyl bicycliccarboxyamide compounds” (Pfizer Inc., priority 2006, dated 2012)

What follows are molecules tested against T1, human VR1 receptors (Homo sapiens, UniProt Q8NER1) (assay: Human VR1 antagonist assay (Ca2+ imaging)). Conditions: Ca2+ imaging (fura-2/AM) in cells highly expressing human VR1; agonist stimulation.
T1 construct: host or cells: cells that express human VR1 receptors (cell type not specified)
Type: cell-based
Description: Human VR1 Antagonist Assay
VR1 antagonistic activity can be determined by the Ca^2+ imaging assay using human VR1 highly expressing cells. The cells that highly express human VR1 receptors are obtainable from several different conventional methods. The one standard method is cloning from human Dorsal Root Ganglion (DRG) or kidney according to the methods such as described in the journal article; Nature, 389, pp 816-824, 1997. Alternatively VR1 receptors highly expressing human keratinocytes are also known and published in the journal article (Biochemical and Biophysical Research Communications, 291, pp 124-129, 2002). […] Furthermore, the method to up regulate human VR1 gene, which is usually a silent gene or don't produce detectable level of VR1 receptors, is also available to obtain propriety cells. Such genetic modification method was described in detail; Nat. Biotechnol., 19, pp 440-445, 2001.
The cells that express human VR1 receptors were maintained in culture flask at 37° C. in an environment containing 5% CO2 until use in the assay. The intracellular Ca^2+ imaging assay to determine VR1 antagonistic activities were done by following procedures.
The culture medium was removed from the flask and fura-2/AM fluorescent calcium indicator was added to the flask at a concentration of 5 μM in the medium. The flask was placed in CO2 incubator and incubated for 1 hour. Then the cells expressing the human VR1 receptors were detached from the flask follow by washing with phosphate buffer saline, PBS(−) and re-suspended in assay buffer. The 80 μl of aliquot of cell suspension (3.75×10^5 cells/ml) was added to the assay plate and the cells were spun down by centrifuge (950 rpm, 20° C., 3 minutes).
The compounds of the examples were tested in the Human VR1 antagonist assay described above.
Capsaicin Stimulation Assay
The capsaicin-induced changes in the intracellular calcium concentration were monitored using FDSS 6000 (Hamamatsu Photonics, Japan), a fluorometric imaging system. The cell suspension in Krebs-Ringer HEPES (KRH) buffer (115 mM NaCl, 5.4 mM KCl, 1 mM MgSO4, 1.8 mM CaCl2, 11 mM D-Glucose, 25 mM HEPES, 0.96 mM Na2HPO4, pH 7.3) were pre-incubated with varying concentrations of the test compounds or KRH buffer (buffer control) for 15 minutes at room temperature under the dark condition. Then capsaicin solution, which gives 300 nM in assay mixture, was automatically added to the assay plate by the FDSS 6000.
The Acid-induced changes in the intracellular calcium concentration were monitored using FDSS 6000 (Hamamatsu Photonics, Japan), a fluorometric imaging system. The cell suspension in resting buffer (HBSS supplemented with 10 mM HEPES, pH 7.4) were pre-incubated with varying concentrations of the test compounds or resting buffer (buffer control) for 15 minutes at room temperature under the dark condition. The cells were automatically added the stimulating solution (HBSS supplemented with MES, final assay buffer pH5.8) by the FDSS 6000.
Determination of Antagonist Activity
The monitoring of the changes in the fluorescence signals (λex=340 nm/380 nm, λem=510-520 nm) was initiated at 1 minute prior to the addition of capsaicin solution or acidic buffer and continued for 5 minute.

T1 sequence (Q8NER1 whole entry): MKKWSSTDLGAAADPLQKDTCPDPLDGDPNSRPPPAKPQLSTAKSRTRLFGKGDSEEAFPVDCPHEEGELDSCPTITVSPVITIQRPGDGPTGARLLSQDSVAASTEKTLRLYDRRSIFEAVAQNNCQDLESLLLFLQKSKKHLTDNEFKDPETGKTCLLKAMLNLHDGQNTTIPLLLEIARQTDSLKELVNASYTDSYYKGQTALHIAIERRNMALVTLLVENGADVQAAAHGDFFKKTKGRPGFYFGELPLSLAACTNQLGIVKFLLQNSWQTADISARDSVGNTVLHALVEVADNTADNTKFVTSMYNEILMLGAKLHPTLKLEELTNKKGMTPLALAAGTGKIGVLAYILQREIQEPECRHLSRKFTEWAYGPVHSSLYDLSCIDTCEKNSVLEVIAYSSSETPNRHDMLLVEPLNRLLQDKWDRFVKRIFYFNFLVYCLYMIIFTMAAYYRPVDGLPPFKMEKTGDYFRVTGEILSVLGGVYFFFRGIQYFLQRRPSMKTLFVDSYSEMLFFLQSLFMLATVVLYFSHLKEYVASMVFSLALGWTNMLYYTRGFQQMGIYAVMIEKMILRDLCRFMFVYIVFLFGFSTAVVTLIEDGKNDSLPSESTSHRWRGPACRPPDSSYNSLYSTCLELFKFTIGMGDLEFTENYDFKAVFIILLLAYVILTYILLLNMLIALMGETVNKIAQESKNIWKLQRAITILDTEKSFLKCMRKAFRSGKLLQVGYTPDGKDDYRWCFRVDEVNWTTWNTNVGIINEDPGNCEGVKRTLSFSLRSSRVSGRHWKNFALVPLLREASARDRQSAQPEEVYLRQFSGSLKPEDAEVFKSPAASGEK

Row | IC50 [nM] | Compound
1 | 451 | C[C@@H](NC(=O)c1ccc2cc(C(C)(C)C)ccc2c1)c1ccncc1 [Example C1, 6-tert-butyl-N-[(1R)-1-pyridin-4-ylethyl]-2-naphthamide]
2 | 231 | Cc1cc(CNC(=O)c2ccc3cc(C(C)(C)C)ccc3n2)ccn1 [Example D1]
3 | 77.5 | Cc1cc([C@@H](C)NC(=O)c2ccc3cc(C(C)(C)C)ccc3c2)ccn1 [Example C3, 6-tert-butyl-N-[(1R)-1-(2-methylpyridin-4-yl)ethyl]-2-naphthamide]
4 | 85.1 | Cc1cc(CNC(=O)c2ccc3cc(C(C)(C)C)ccc3n2)c(C)cn1 [Example D2]
5 | 203 | COc1cc(CNC(=O)c2ccc3cc(C(C)(C)C)ccc3c2)ccn1 [Example C2, 6-tert-butyl-N-[(2-methoxypyridin-4-yl)methyl]-2-naphthamide]
6 | 32.5 | Cc1cc(CNC(=O)c2ccc3cc(C(C)(C)C)ccc3c2)c(C)cn1 [Example C4, 6-tert-butyl-N-[(2,5-dimethylpyridin-4-yl)methyl]-2-naphthamide]
7 | 426 | Cc1ccc([C@@H](C)NC(=O)c2ccc3cc(C(C)(C)C)ccc3n2)cn1 [Example B1, 6-tert-butyl-N-[(1R)-1-(6-methylpyridin-3-yl)ethyl]quinoline-2-carboxamide]

Continued, molecule first:

Row | Compound | IC50 [nM]
8 | Cc1ccc([C@@H](C)NC(=O)c2ccc3cc(C(C)(C)C)ccc3c2)cn1 [Example A3, 6-tert-butyl-N-[(1R)-1-(6-methylpyridin-3-yl)ethyl]-2-naphthamide] | 96
9 | Cc1ncc([C@@H](C)NC(=O)c2ccc3cc(C(C)(C)C)ccc3c2)cc1Cl [Example A4, 6-tert-butyl-N-[(1R)-1-(5-chloro-6-methylpyridin-3-yl)ethyl]-2-naphthamide] | 271
10 | Cc1ccc(CNC(=O)c2ccc3cc(C(C)(C)C)ccc3c2)cn1 [Example A1, 6-tert-butyl-N-[(6-methylpyridin-3-yl)methyl]-2-naphthamide] | 250
11 | Cc1ccc(C(C)NC(=O)c2ccc3cc(C(C)(C)C)ccc3c2)cn1 (centres unmarked) [Example A2, 6-tert-butyl-N-[1-(6-methylpyridin-3-yl)ethyl]-2-naphthamide] | 67.8
12 | C[C@@H](NC(=O)c1ccc2cc(C(C)(C)C)ccc2c1)c1ccc(CO)nc1 [Example A5, 6-tert-butyl-N-{(1R)-1-[6-(hydroxymethyl)pyridin-3-yl]ethyl}-2-naphthamide] | 127
13 | Oc1cc2c(cc1O)CN(C(=S)NCCc1ccc(Cl)cc1)CCC2 [Capsazepine, reference compound] | 237 to 455
14 | CC[C@@H](NC(=O)c1ccc2cc(C(C)(C)C)ccc2c1)c1ccc(C)nc1 [Example A6, (R)-6-tert-butyl-N-(1-(6-methylpyridin-3-yl)propyl)-2-naphthamide] | 261
